Test results: patent publication US7230143B2, “Chromatographic method for the analysis of both in process and finished sevoflurane” (Halocarbon Products Corporation, priority 2004, dated 2007)

Assay: Partition of sevoflurane and HFIP in solvent/HF system
Format: physicochemical
Conditions: equal volumes, 25 C, fraction of original compound found in the solvent, by gas chromatography; for Partition Coefficients of Sevoflurane and HFIP in solvent/HF system: 1,2,3-trichloropropane: solvent 1,2,3-trichloropropane / HF; for Partition Coefficients of Sevoflurane and HFIP in solvent/HF system: HC-0.8 oil: solvent HC-0.8 oil (mixture of tetrachlorobutanes) / HF; for Partition Coefficients of Sevoflurane and HFIP in solvent/HF system: Krytox: solvent Krytox (1:1 mixture of DuPont Krytox GLP 100 and K6) / HF
Description: The partitions of sevoflurane and of HFIP in solvent/HF system were measured by mixing a small amount of either sevoflurane or HFIP with a two-layer mixture of equal volumes of a particular solvent and HF at 25 C. After enough mixing to reach equilibrium, the fraction of original compound found in the solvent was determined by gas chromatography and quantified using standards.

SMILES: FCOC(C(F)(F)F)C(F)(F)F [Sevoflurane, fluoromethyl 2,2,2-trifluoro-1-(trifluoromethyl)ethyl ether]
- Partition Coefficients of Sevoflurane and HFIP in solvent/HF system: 1,2,3-trichloropropane: 0.45
- Partition Coefficients of Sevoflurane and HFIP in solvent/HF system: HC-0.8 oil: 1.00
- Partition Coefficients of Sevoflurane and HFIP in solvent/HF system: Krytox: 0.32
- Partition Coefficients of Sevoflurane and HFIP in solvent/HF system: Isooctane: 0.30
- Partition Coefficients of Sevoflurane and HFIP in solvent/HF system: Perfluoromethyldecalin: 0.22

SMILES: OC(C(F)(F)F)C(F)(F)F [HFIP, 1,1,1,3,3,3-hexafluoro-2-propanol]
- Partition Coefficients of Sevoflurane and HFIP in solvent/HF system: 1,2,3-trichloropropane: <0.005
- Partition Coefficients of Sevoflurane and HFIP in solvent/HF system: HC-0.8 oil: 0.01
- Partition Coefficients of Sevoflurane and HFIP in solvent/HF system: Krytox: <0.005
- Partition Coefficients of Sevoflurane and HFIP in solvent/HF system: Isooctane: <0.005
- Partition Coefficients of Sevoflurane and HFIP in solvent/HF system: Perfluoromethyldecalin: <0.005
